Source: ChEMBL document CHEMBL4130368, “Thienopyrimidine derivatives exert their anticancer efficacy via apoptosis induction, oxidative stress and mitotic catastrophe” (Eur J Med Chem, 2017)
Calls of active or inactive are those of the source. The calls are words filed in the database; no cut-off is given here.

Experiments:
HCT-116 [1] = test: Induction of apoptosis in human HCT116 cells assessed as early apoptotic cells at 2 uM measured after overnight incubation by mitotracker red/alexa fluor-488 Annexin V staining-based flow cytometry (reference value: 8.36%); assay type: functional
A2780 [2] = test: Induction of apoptosis in human A2780 cells assessed as necrotic cells at 1 uM measured after overnight incubation by mitotracker red/alexa fluor-488 Annexin V staining-based flow cytometry (reference value: 9.94%); assay type: functional
HCT-116 [3] = test: Induction of apoptosis in human HCT116 cells assessed as viable cells at 1 uM measured after overnight incubation by mitotracker red/alexa fluor-488 Annexin V staining-based flow cytometry (reference value: 89%); assay type: functional; conditions: read-out: Activity
2008 [4] = test: Cell cycle arrest in human OV2008 cells assessed as accumulation at S phase at 2 uM measured after overnight incubation by propidium iodide staining-based flow cytometry (reference value: 10.8%); assay type: functional
A2780 [5] = test: Cell cycle arrest in human A2780 cells assessed as accumulation at G1 phase at 1 uM measured after overnight incubation by propidium iodide staining-based flow cytometry (reference value: 51.1%); assay type: functional
HCT-116 [6] = test: Cell cycle arrest in human HCT116 cells assessed as accumulation at subG1 phase at 2 uM measured after overnight incubation by propidium iodide staining-based flow cytometry (reference value: 0.154%); assay type: functional
2008 [7] = test: Induction of mitotic catastrophe in human OV2008 cells assessed as formation of de-condensed multiple micronuclei at 0.5 to 2 uM measured after overnight incubation by DAPI-staining based microscopy; assay type: functional, cell-based
HCT-116 [8] = test: Inhibition of colony formation in human HCT116 cells at 1 to 2 uM after 24 hrs by crystal violet dye based assay; assay type: functional, cell-based
[9] = Selectivity index, ratio of IC50 for CHO cells to IC50 for human HCT15 cells; assay type: toxicity; conditions: Chinese hamster (CHO cells), CHO cells versus HCT15 cells, read-out: Ratio IC50
CHO = test: Cytotoxicity against CHO cells assessed as reduction in cell survival after 72 hrs by MTT assay; assay type: ADME, cell-based; conditions: Cricetulus griseus
A2780 [10] = test: Induction of apoptosis in human A2780 cells assessed as condensation of nuclei at 0.5 to 2 uM measured after overnight incubation by DAPI-staining based microscopy; assay type: functional, cell-based
A2780 [11] = test: Induction of apoptosis in human A2780 cells assessed as late apoptotic cells at 2 uM measured after overnight incubation by mitotracker red/alexa fluor-488 Annexin V staining-based flow cytometry (reference value: 0.015%); assay type: functional
HCT-116 [12] = test: Cell cycle arrest in human HCT116 cells assessed as accumulation at G1 phase at 1 uM measured after overnight incubation by propidium iodide staining-based flow cytometry (reference value: 63.5%); assay type: functional
A2780 [13] = test: Cell cycle arrest in human A2780 cells assessed as accumulation at subG1 phase at 1 uM measured after overnight incubation by propidium iodide staining-based flow cytometry (reference value: 8.88%); assay type: functional
HCT-15 = test: Antiproliferative activity against human HCT15 cells after 72 hrs by MTT assay; assay type: functional, cell-based; conditions: HCT-15, 72 h
2008 [14] = test: Cell cycle arrest in human OV2008 cells assessed as accumulation at G2 phase at 2 uM measured after overnight incubation by propidium iodide staining-based flow cytometry (reference value: 26.9%); assay type: functional
[15] = Antiproliferative activity against human GBM10 cells after 72 hrs by MTT assay; assay type: functional, cell-based; conditions: GBM10, 72 h
HCT-116 [16] = test: Induction of apoptosis in human HCT116 cells assessed as viable cells at 2 uM measured after overnight incubation by mitotracker red/alexa fluor-488 Annexin V staining-based flow cytometry (reference value: 89%); assay type: functional; conditions: read-out: Activity
[17] = Selectivity index, ratio of IC50 for CHO cells to IC50 for human HCT116 cells; assay type: toxicity; conditions: Chinese hamster (CHO cells), CHO cells versus HCT116 cells, read-out: Ratio IC50
2008 [18] = test: Induction of apoptosis in human OV2008 cells assessed as cell shrinkage at 0.5 to 2 uM measured after overnight incubation by DAPI-staining based microscopy; assay type: functional
2008 [19] = test: Induction of apoptosis in human OV2008 cells assessed as necrotic cells at 1 uM measured after overnight incubation by mitotracker red/alexa fluor-488 Annexin V staining-based flow cytometry (reference value: 6.31%); assay type: functional
A2780 [20] = test: Antiproliferative activity against human A2780 cells after 72 hrs by MTT assay; assay type: functional, cell-based; conditions: A2780, 72 h
2008 [21] = test: Induction of apoptosis in human OV2008 cells assessed as early apoptotic cells at 2 uM measured after overnight incubation by mitotracker red/alexa fluor-488 Annexin V staining-based flow cytometry (reference value: 12.9%); assay type: functional
A2780 [22] = test: Cell cycle arrest in human A2780 cells assessed as accumulation at G1 phase at 2 uM measured after overnight incubation by propidium iodide staining-based flow cytometry (reference value: 51.1%); assay type: functional
A2780 [23] = test: Cell cycle arrest in human A2780 cells assessed as accumulation at S phase at 1 uM measured after overnight incubation by propidium iodide staining-based flow cytometry (reference value: 15.2%); assay type: functional
HCT-116 [24] = test: Induction of apoptosis in human HCT116 cells assessed as early apoptotic cells at 1 uM measured after overnight incubation by mitotracker red/alexa fluor-488 Annexin V staining-based flow cytometry (reference value: 8.36%); assay type: functional
HCT-116 [25] = test: Induction of mitotic catastrophe in human HCT116 cells assessed as formation of de-condensed multiple micronuclei at 0.5 to 2 uM measured after overnight incubation by DAPI-staining based microscopy; assay type: functional, cell-based
HCT-116 [26] = test: Induction of apoptosis in human HCT116 cells assessed as necrotic cells at 2 uM measured after overnight incubation by mitotracker red/alexa fluor-488 Annexin V staining-based flow cytometry (reference value: 2.67%); assay type: functional
HCT-116 [27] = test: Induction of cellular oxidative stress in human HCT116 cells assessed as increase in ROS levels at 0.5 to 4 uM after 48 hrs by DCFDA dye-based fluorescence microscopic method; assay type: functional, cell-based
2008 [28] = test: Induction of apoptosis in human OV2008 cells assessed as viable cells at 1 uM measured after overnight incubation by mitotracker red/alexa fluor-488 Annexin V staining-based flow cytometry (reference value: 80.5%); assay type: functional; conditions: read-out: Activity
HCT-116 [29] = test: Induction of apoptosis in human HCT116 cells assessed as late apoptotic cells at 1 uM measured after overnight incubation by mitotracker red/alexa fluor-488 Annexin V staining-based flow cytometry (reference value: 0%); assay type: functional
LN-229 = test: Antiproliferative activity against human LN229 cells after 72 hrs by MTT assay; assay type: functional, cell-based; conditions: LN-229, 72 h
2008 [30] = test: Inhibition of colony formation in human OV2008 cells at 1 to 2 uM after 24 hrs by crystal violet dye based assay; assay type: functional, cell-based
HCT-116 [31] = test: Induction of apoptosis in human HCT116 cells assessed as late apoptotic cells at 2 uM measured after overnight incubation by mitotracker red/alexa fluor-488 Annexin V staining-based flow cytometry (reference value: 0%); assay type: functional
HCT-116 [32] = test: Cell cycle arrest in human HCT116 cells assessed as accumulation at […] at 1 uM measured after overnight incubation by propidium iodide staining-based flow cytometry (reference value: 9.70%); assay type: functional
2008 [33] = test: Cell cycle arrest in human OV2008 cells assessed as accumulation at G1 phase at 2 uM measured after overnight incubation by propidium iodide staining-based flow cytometry (reference value: 52.6%); assay type: functional

Work on COc1ccc(-c2nc(O)c3c4c(sc3n2)CCCC4)cc1 yielded an Activity (HCT-116 [1]) of 25.9%, an Activity (A2780 [2]) of 0.421% and a viability at 1 µM (HCT-116 [3]) of 87%. For the same compound, the Activity 2008 [4] was 31.8%, the Activity (A2780 [5]) was 20.2% and the Activity (HCT-116 [6]) was 0.097%. The Activity 2008 [7] was “Active”, the inhibition (HCT-116 [8]) was “Dose-dependent effect” and the selectivity ratio [9] was 17 to 28. The IC50 (CHO) was 14000 nM, the Activity (A2780 [10]) was “Active” and the Activity (A2780 [11]) was 0.051%. It also gave an Activity (HCT-116 [12]) of 37.5%, an Activity (A2780 [13]) of 7.99% and an IC50 (HCT-15) of 700 nM. The Activity 2008 [14] was 41.1%, the IC50 [15] was 800 nM and the viability at 2 µM (HCT-116 [16]) was 71.1%. The selectivity ratio [17] was 17 to 28, the Activity 2008 [18] was “Active” and the Activity 2008 [19] was 4.31%. For the same compound, the IC50 (A2780 [20]) was 1200 nM, the Activity 2008 [21] was 22.2% and the Activity (A2780 [22]) was 15.5%. For the same compound, the Activity (A2780 [23]) was 10.4%, the Activity (HCT-116 [24]) was 11.6% and the Activity (HCT-116 [25]) was “Active”. The Activity (HCT-116 [26]) was 3.04%, the Activity (HCT-116 [27]) was “Active” and the viability at 1 µM 2008 [28] was 75.1%. The Activity (HCT-116 [29]) was 0%, the IC50 (LN-229) was 500 nM and the inhibition 2008 [30] was “Dose-dependent effect”. For the same compound, the Activity (HCT-116 [31]) was 0%, the Activity (HCT-116 [32]) was 12.3% and the Activity 2008 [33] was 13.6%.
